# From US10175256B2, “Compositions and methods utilizing lysophosphatidylcholine scaffolds” (National University Of Singapore, priority 2013, dated 2019)
# Several values for one entry are separate records, joined by “and”; a condition that tells them apart may be missing. Identical values can stand only once.
# Target: T1, mouse Mfsd2a (Mus musculus, UniProt Q9DA75)
# T1 construct: expressed in transfected cells; host or cells: HEK293
# T1 sequence (Q9DA75 1-534): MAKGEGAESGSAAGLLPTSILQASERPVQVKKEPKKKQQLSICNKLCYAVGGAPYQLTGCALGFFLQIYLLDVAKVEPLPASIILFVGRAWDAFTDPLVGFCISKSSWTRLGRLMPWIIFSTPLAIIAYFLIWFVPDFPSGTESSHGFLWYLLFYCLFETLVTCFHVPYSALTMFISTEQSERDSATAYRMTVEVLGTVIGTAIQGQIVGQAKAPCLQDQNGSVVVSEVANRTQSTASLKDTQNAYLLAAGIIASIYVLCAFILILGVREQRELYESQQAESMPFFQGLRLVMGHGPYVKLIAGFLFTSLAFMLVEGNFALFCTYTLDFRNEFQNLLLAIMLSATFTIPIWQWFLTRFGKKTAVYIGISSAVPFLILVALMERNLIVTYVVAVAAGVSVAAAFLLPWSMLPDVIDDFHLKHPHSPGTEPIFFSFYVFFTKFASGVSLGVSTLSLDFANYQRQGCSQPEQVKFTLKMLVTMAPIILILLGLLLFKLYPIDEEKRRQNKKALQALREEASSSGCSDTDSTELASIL
# Assay: Cell-based free fatty acid transport/uptake in Mfsd2a expressing HEK293 cells (mass spectrometry, TLC; Table 1)
# Conditions: Mfsd2a HEK293 cells, 100 uM fatty acid/BSA overnight
# How it was run: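 HEK293 cells expressing mouse Mfsd2a, or mock controls, were incubated overnight with 100 μM BSA-complexed fatty acids. Lipids were extracted in hexane:isopropanol (3:2) and phospholipid species quantified by HPLC-MS/MS against spiked internal standards. For TLC, cells received 100 μM [^14C]-oleate overnight, and phospholipids and neutral lipids were resolved.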
smiles,measurement,value
CCCCCCCCCCCCCCCC(=O)O [Palmitic acid],PE34p:2 in total phospholipid,0.2893 mol percent and 0.2458 mol percent and 0.4295 mol percent
same,PE36:1 in total phospholipid,1.713 mol percent and 1.465 mol percent and 1.861 mol percent
same,PE36:2 in total phospholipid,2.152 mol percent and 2.192 mol percent and 2.267 mol percent
same,PE36:3 in total phospholipid,0.4629 mol percent and 0.5112 mol percent and 0.4773 mol percent
same,PE36:4 in total phospholipid,0.3125 mol percent and 0.2556 mol percent and 0.346 mol percent
same,PE36p:1 in total phospholipid,0.5555 mol percent and 0.4227 mol percent and 0.5608 mol percent
same,PE36p:2 in total phospholipid,0.7869 mol percent and 0.5996 mol percent and 0.6801 mol percent
same,PE36p:3 in total phospholipid,0.8448 mol percent and 0.8061 mol percent and 1.169 mol percent
same,PE36p:4 in total phospholipid,1.273 mol percent and 1.14 mol percent and 1.432 mol percent
same,PE38:1 in total phospholipid,0.4976 mol percent and 0.3342 mol percent and 0.5727 mol percent
same,PE38:2 in total phospholipid,0.3125 mol percent and 0.3342 mol percent and 0.3579 mol percent
same,PE38:3 in total phospholipid,0.6133 mol percent and 0.6685 mol percent and 0.6204 mol percent
same,PE38:4 in total phospholipid,0.9026 mol percent and 0.9732 mol percent and 1.301 mol percent
same,PE38:5 in total phospholipid,0.486 mol percent and 0.4227 mol percent and 0.5488 mol percent
same,PE38:6 in total phospholipid,0.2083 mol percent and 0.1081 mol percent and 0.1432 mol percent
same,PE38:7 in total phospholipid,0.08101 mol percent and 0.07864 mol percent and 0.04773 mol percent
same,PE38p:0 in total phospholipid,0.1273 mol percent and 0.118 mol percent and 0.1074 mol percent
same,PE38p:1 in total phospholipid,0.1504 mol percent and 0.1769 mol percent and 0.2744 mol percent
same,PE38p:2 in total phospholipid,0.3935 mol percent and 0.2359 mol percent and 0.3937 mol percent
same,PE38p:3 in total phospholipid,0.9721 mol percent and 0.8651 mol percent and 0.9426 mol percent
same,PE38p:4 in total phospholipid,0.9142 mol percent and 0.9437 mol percent and 1.086 mol percent
same,PE38p:5 in total phospholipid,0.9489 mol percent and 0.7569 mol percent and 0.8591 mol percent
same,PE38p:6 in total phospholipid,1.215 mol percent and 1.298 mol percent and 1.348 mol percent
same,PE40:3 in total phospholipid,0.08101 mol percent and 0.0983 mol percent and 0.1074 mol percent
same,PE40:4 in total phospholipid,0.1157 mol percent and 0.118 mol percent and 0.1909 mol percent
same,PE40:5 in total phospholipid,0.1504 mol percent and 0.1868 mol percent and 0.1909 mol percent
same,PE40:6 in total phospholipid,0.4282 mol percent and 0.3539 mol percent and 0.3699 mol percent
same,PE40p:4 in total phospholipid,0.1736 mol percent and 0.1769 mol percent and 0.3102 mol percent
same,PE40p:5 in total phospholipid,0.2893 mol percent and 0.2064 mol percent and 0.3341 mol percent
same,PE40p:6 in total phospholipid,0.6018 mol percent and 0.6095 mol percent and 0.4892 mol percent
same,PE42:7 in total phospholipid,0.06943 mol percent and 0.05898 mol percent and 0.09545 mol percent
same,PE42p:4 in total phospholipid,0.09258 mol percent and 0.1081 mol percent and 0.1074 mol percent
same,PI 32:1 in total phospholipid,0.01515 mol percent and 0.01528 mol percent and 0.0154 mol percent
same,PI 32:2 in total phospholipid,0.002439 mol percent and 0.002103 mol percent and 0.001294 mol percent
same,PI 34:1 in total phospholipid,0.1103 mol percent and 0.114 mol percent and 0.1029 mol percent
same,PI 34:2 in total phospholipid,0.0629 mol percent and 0.06982 mol percent and 0.06458 mol percent
same,PI 36:1 in total phospholipid,0.1503 mol percent and 0.1538 mol percent and 0.1543 mol percent
same,PI 36:2 in total phospholipid,0.3719 mol percent and 0.3721 mol percent and 0.3402 mol percent
same,PI 36:3 in total phospholipid,0.1684 mol percent and 0.1865 mol percent and 0.158 mol percent
same,PI 36:4 in total phospholipid,0.03864 mol percent and 0.0429 mol percent and 0.03921 mol percent
same,PI 38:2 in total phospholipid,0.3564 mol percent and 0.36 mol percent and 0.319 mol percent
same,PI 38:3 in total phospholipid,1.005 mol percent and 1.022 mol percent and 0.9636 mol percent
same,PI 38:4 in total phospholipid,0.3607 mol percent and 0.3811 mol percent and 0.3385 mol percent
same,PI 38:5 in total phospholipid,0.05186 mol percent and 0.04823 mol percent and 0.04943 mol percent
same,PI 38:6 in total phospholipid,0.006419 mol percent and 0.006589 mol percent and 0.006082 mol percent
same,PI 40:3 in total phospholipid,0.02721 mol percent and 0.02636 mol percent and 0.02342 mol percent
same,PI 40:4 in total phospholipid,0.01374 mol percent and 0.0136 mol percent and 0.01449 mol percent
same,PI 40:5 in total phospholipid,0.006419 mol percent and 0.00673 mol percent and 0.006341 mol percent
same,PI 40:6 in total phospholipid,0.008088 mol percent and 0.005328 mol percent and 0.005047 mol percent
same,PS(sum) in total phospholipid,2.6184 mol percent and 2.721 mol percent and 2.696 mol percent
same,PS:34:1 in total phospholipid,0.4034 mol percent and 0.439 mol percent and 0.4315 mol percent
same,PS:34:2 in total phospholipid,0.04042 mol percent and 0.03854 mol percent and 0.04968 mol percent
same,PS:36:1 in total phospholipid,1.063 mol percent and 1.166 mol percent and 1.107 mol percent
same,PS:36:2 in total phospholipid,0.3989 mol percent and 0.3832 mol percent and 0.387 mol percent
same,PS:36:3 in total phospholipid,0.02599 mol percent and 0.02171 mol percent and 0.02615 mol percent
same,PS:36:4 in total phospholipid,0.004537 mol percent and 0.005316 mol percent and 0.006102 mol percent
same,PS:38:2 in total phospholipid,0.2194 mol percent and 0.2087 mol percent and 0.231 mol percent
same,PS:38:3 in total phospholipid,0.1497 mol percent and 0.1471 mol percent and 0.1469 mol percent
same,PS:38:4 in total phospholipid,0.05651 mol percent and 0.07531 mol percent and 0.06102 mol percent
same,PS:38:5 in total phospholipid,0.007425 mol percent and 0.01063 mol percent and 0.01438 mol percent
same,PS:40:4 in total phospholipid,0.07342 mol percent and 0.05892 mol percent and 0.05971 mol percent
same,PS:40:5 in total phospholipid,0.04908 mol percent and 0.05626 mol percent and 0.06189 mol percent
same,PS:40:6 in total phospholipid,0.1089 mol percent and 0.09746 mol percent and 0.1011 mol percent
same,PS:40:7 in total phospholipid,0.01732 mol percent and 0.0124 mol percent and 0.01264 mol percent
same,Total PC + lysoPC in total phospholipid,67.6 mol percent and 68.89 mol percent and 64.689 mol percent
same,Total PE + lysoPE in total phospholipid,26.98 mol percent and 25.52 mol percent and 29.98 mol percent
same,Total PI + lysoPI in total phospholipid,2.796 mol percent and 2.866 mol percent and 2.638 mol percent
